What all share (test): relative viability (nuclei count vs DMSO), 5 days (fraction); higher = more cells survive
Compound in the assay “Tipifarnib + OSI-027”: Cn1cncc1[C@@](N)(c1ccc(Cl)cc1)c1ccc2c(c1)c(-c1cccc(Cl)c1)cc(=O)n2C [Tipifarnib] + COc1cccc2cc(-c3nc([C@H]4CC[C@H](C(=O)O)CC4)n4ncnc(N)c34)[nH]c12 [OSI-027] (partner 0.5 µM)
An outline of the steps: (§1)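 Relative viability divides the nuclei count in treated wells by that in vehicle wells. Lung cancer cell lines were seeded in 1536-well plates, dosed by pin tool the next day, and fixed and stained after 5 days in one step with final 0.05% Triton X-100, 1% formaldehyde and 1 ug/ml Hoechst. Dosing was a single drug or a fixed anchor-drug dose plus five library-drug doses (not always all listed) in √10 steps, and values are medians of duplicate plates imaged at 4×.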

Compound in the assay “Tipifarnib + Crizotinib”: Cn1cncc1[C@@](N)(c1ccc(Cl)cc1)c1ccc2c(c1)c(-c1cccc(Cl)c1)cc(=O)n2C [Tipifarnib] + C[C@@H](Oc1cc(-c2cnn(C3CCNCC3)c2)cnc1N)c1c(Cl)ccc(F)c1Cl [Crizotinib] (partner 1 µM)
The method in brief: as §1

Compound in the assay “Tipifarnib + Linsitinib”: Cn1cncc1[C@@](N)(c1ccc(Cl)cc1)c1ccc2c(c1)c(-c1cccc(Cl)c1)cc(=O)n2C [Tipifarnib] + C[C@]1(O)C[C@@H](c2nc(-c3ccc4ccc(-c5ccccc5)nc4c3)c3c(N)nccn32)C1 [Linsitinib] (partner 1 µM)
An outline of the steps: as §1

Compound in the assay “Tipifarnib + Tozasertib”: Cn1cncc1[C@@](N)(c1ccc(Cl)cc1)c1ccc2c(c1)c(-c1cccc(Cl)c1)cc(=O)n2C [Tipifarnib] + Cc1cc(Nc2cc(N3CCN(C)CC3)nc(Sc3ccc(NC(=O)C4CC4)cc3)n2)n[nH]1 [Tozasertib] (partner 0.1 µM)
The method in brief: as §1

Consider LOU-NH91, for which the relative viability is 0.698 with Tipifarnib + OSI-027 (first compound 0.01 µM); 0.589 with Tipifarnib + OSI-027 (first compound 0.03162 µM); 0.5 with Tipifarnib + OSI-027 (first compound 0.1 µM); 0.485 with Tipifarnib + OSI-027 (first compound 0.3162 µM); 0.467 in the assay with Tipifarnib + OSI-027 (first compound 1 µM); 0.741 in the assay with Tipifarnib + Crizotinib (first compound 0.01 µM). The relative viability was found to be 0.752 with Tipifarnib + Crizotinib (first compound 0.03162 µM); 0.695 with Tipifarnib + Crizotinib (first compound 0.1 µM); 0.619 in the assay with Tipifarnib + Crizotinib (first compound 0.3162 µM); 0.646 with Tipifarnib + Crizotinib (first compound 1 µM); 0.937 in the assay with Tipifarnib + Linsitinib (first compound 0.01 µM); 0.819 with Tipifarnib + Linsitinib (first compound 0.03162 µM). The relative viability with Tipifarnib + Linsitinib (first compound 0.1 µM) is 0.838; in the assay with Tipifarnib + Linsitinib (first compound 0.3162 µM) it was 0.736; with Tipifarnib + Linsitinib (first compound 1 µM), 0.691; in the assay with Tipifarnib + Tozasertib (first compound 0.01 µM) it was 0.61; with Tipifarnib + Tozasertib (first compound 0.03162 µM), 0.524; with Tipifarnib + Tozasertib (first compound 0.1 µM), 0.329. The relative viability with Tipifarnib + Tozasertib (first compound 0.3162 µM) came out at 0.464; with Tipifarnib + Tozasertib (first compound 1 µM), 0.441.
Take NCI-H2347: the relative viability with Tipifarnib + OSI-027 (first compound 0.01 µM) came out at 0.479; with Tipifarnib + OSI-027 (first compound 0.03162 µM) it was 0.368; with Tipifarnib + OSI-027 (first compound 0.1 µM) it was 0.411; in the assay with Tipifarnib + OSI-027 (first compound 0.3162 µM), 0.259; in the assay with Tipifarnib + OSI-027 (first compound 1 µM), 0.334; with Tipifarnib + Crizotinib (first compound 0.01 µM) it was 0.53. Also, the relative viability with Tipifarnib + Crizotinib (first compound 0.03162 µM) was found to be 0.546; with Tipifarnib + Crizotinib (first compound 0.1 µM), 0.57; with Tipifarnib + Crizotinib (first compound 0.3162 µM), 0.476; in the assay with Tipifarnib + Crizotinib (first compound 1 µM), 0.486; with Tipifarnib + Linsitinib (first compound 0.01 µM), 0.973; with Tipifarnib + Linsitinib (first compound 0.03162 µM) it was 0.739. Moreover, the relative viability with Tipifarnib + Linsitinib (first compound 0.1 µM) turned out to be 0.649; with Tipifarnib + Linsitinib (first compound 0.3162 µM), 0.693; with Tipifarnib + Linsitinib (first compound 1 µM), 0.735; with Tipifarnib + Tozasertib (first compound 0.01 µM) it was 0.516; with Tipifarnib + Tozasertib (first compound 0.03162 µM) it was 0.402; with Tipifarnib + Tozasertib (first compound 0.1 µM) it was 0.431. Also, the relative viability with Tipifarnib + Tozasertib (first compound 0.3162 µM) was found to be 0.382; in the assay with Tipifarnib + Tozasertib (first compound 1 µM), 0.461.
As to NCI-H2126, the relative viability with Tipifarnib + OSI-027 (first compound 0.01 µM) was found to be 0.719; with Tipifarnib + OSI-027 (first compound 0.03162 µM) it was 0.719; with Tipifarnib + OSI-027 (first compound 0.1 µM) it was 0.711; with Tipifarnib + OSI-027 (first compound 0.3162 µM), 0.614; in the assay with Tipifarnib + OSI-027 (first compound 1 µM), 0.435; with Tipifarnib + Crizotinib (first compound 0.01 µM) it was 0.977. For the same cell line, the relative viability with Tipifarnib + Crizotinib (first compound 0.03162 µM) is 1.01; with Tipifarnib + Crizotinib (first compound 0.1 µM) it was 1.02; with Tipifarnib + Crizotinib (first compound 0.3162 µM) it was 0.924; with Tipifarnib + Crizotinib (first compound 1 µM) it was 0.904; in the assay with Tipifarnib + Linsitinib (first compound 0.01 µM), 0.758; with Tipifarnib + Linsitinib (first compound 0.03162 µM) it was 0.617. For the same cell line, the relative viability with Tipifarnib + Linsitinib (first compound 0.1 µM) was determined as 0.692; with Tipifarnib + Linsitinib (first compound 0.3162 µM) it was 0.692; with Tipifarnib + Linsitinib (first compound 1 µM), 0.682; with Tipifarnib + Tozasertib (first compound 0.01 µM) it was 0.858; with Tipifarnib + Tozasertib (first compound 0.03162 µM), 0.697; with Tipifarnib + Tozasertib (first compound 0.1 µM), 0.673. Further, the figures for the relative viability with Tipifarnib + Tozasertib (first compound 0.3162 µM) and in the assay with Tipifarnib + Tozasertib (first compound 1 µM) were 0.603 and 0.501, respectively.
HCC-827: the relative viability is 0.901 with Tipifarnib + OSI-027 (first compound 0.01 µM); 0.809 with Tipifarnib + OSI-027 (first compound 0.03162 µM); 0.687 in the assay with Tipifarnib + OSI-027 (first compound 0.1 µM); 0.435 in the assay with Tipifarnib + OSI-027 (first compound 0.3162 µM); 0.388 with Tipifarnib + OSI-027 (first compound 1 µM); 0.868 with Tipifarnib + Crizotinib (first compound 0.01 µM). Moreover, the relative viability with Tipifarnib + Crizotinib (first compound 0.03162 µM) was determined as 0.883; with Tipifarnib + Crizotinib (first compound 0.1 µM) it was 0.712; with Tipifarnib + Crizotinib (first compound 0.3162 µM), 0.617; in the assay with Tipifarnib + Crizotinib (first compound 1 µM) it was 0.552; with Tipifarnib + Linsitinib (first compound 0.01 µM) it was 0.828; with Tipifarnib + Linsitinib (first compound 0.03162 µM), 0.918. Moreover, the relative viability with Tipifarnib + Linsitinib (first compound 0.1 µM) amounted to 0.805; in the assay with Tipifarnib + Linsitinib (first compound 0.3162 µM), 0.639; with Tipifarnib + Linsitinib (first compound 1 µM), 0.6; with Tipifarnib + Tozasertib (first compound 0.01 µM), 0.41; with Tipifarnib + Tozasertib (first compound 0.03162 µM), 0.409; with Tipifarnib + Tozasertib (first compound 0.1 µM), 0.335. Further, the relative viability in the assay with Tipifarnib + Tozasertib (first compound 0.3162 µM) was 0.26; with Tipifarnib + Tozasertib (first compound 1 µM), 0.334.
Consider NCI-H3122, for which the relative viability with Tipifarnib + OSI-027 (first compound 0.01 µM) was 0.949; with Tipifarnib + OSI-027 (first compound 0.03162 µM), 0.568; with Tipifarnib + OSI-027 (first compound 0.1 µM) it was 0.384; with Tipifarnib + OSI-027 (first compound 0.3162 µM), 0.233; with Tipifarnib + OSI-027 (first compound 1 µM), 0.225; with Tipifarnib + Crizotinib (first compound 0.01 µM), 0.281. The relative viability with Tipifarnib + Crizotinib (first compound 0.03162 µM) came to 0.217; in the assay with Tipifarnib + Crizotinib (first compound 0.1 µM), 0.249; with Tipifarnib + Crizotinib (first compound 0.3162 µM), 0.256; with Tipifarnib + Crizotinib (first compound 1 µM), 0.254; with Tipifarnib + Linsitinib (first compound 0.01 µM) it was 1.02; in the assay with Tipifarnib + Linsitinib (first compound 0.03162 µM), 0.835. Also, the relative viability with Tipifarnib + Linsitinib (first compound 0.1 µM) came to 0.784; with Tipifarnib + Linsitinib (first compound 0.3162 µM), 0.663; with Tipifarnib + Linsitinib (first compound 1 µM), 0.726; with Tipifarnib + Tozasertib (first compound 0.01 µM), 0.372; with Tipifarnib + Tozasertib (first compound 0.03162 µM) it was 0.27; in the assay with Tipifarnib + Tozasertib (first compound 0.1 µM), 0.277. Moreover, the relative viability is 0.196 in the assay with Tipifarnib + Tozasertib (first compound 0.3162 µM) and 0.183 with Tipifarnib + Tozasertib (first compound 1 µM).
HOP-62: the relative viability in the assay with Tipifarnib + OSI-027 (first compound 0.01 µM) was 0.639; with Tipifarnib + OSI-027 (first compound 0.03162 µM), 0.382; with Tipifarnib + OSI-027 (first compound 0.1 µM) it was 0.33; with Tipifarnib + OSI-027 (first compound 0.3162 µM), 0.263; with Tipifarnib + OSI-027 (first compound 1 µM), 0.317; in the assay with Tipifarnib + Crizotinib (first compound 0.01 µM), 0.726. Moreover, the relative viability in the assay with Tipifarnib + Crizotinib (first compound 0.03162 µM) turned out to be 0.528; with Tipifarnib + Crizotinib (first compound 0.1 µM), 0.303; with Tipifarnib + Crizotinib (first compound 0.3162 µM) it was 0.35; with Tipifarnib + Crizotinib (first compound 1 µM), 0.448; in the assay with Tipifarnib + Linsitinib (first compound 0.01 µM), 0.916; in the assay with Tipifarnib + Linsitinib (first compound 0.03162 µM) it was 0.64. In addition, the relative viability in the assay with Tipifarnib + Linsitinib (first compound 0.1 µM) turned out to be 0.38; with Tipifarnib + Linsitinib (first compound 0.3162 µM), 0.304; in the assay with Tipifarnib + Linsitinib (first compound 1 µM), 0.301; in the assay with Tipifarnib + Tozasertib (first compound 0.01 µM), 0.297; with Tipifarnib + Tozasertib (first compound 0.03162 µM), 0.292; with Tipifarnib + Tozasertib (first compound 0.1 µM), 0.312. In addition, the figures for the relative viability in the assay with Tipifarnib + Tozasertib (first compound 0.3162 µM) and in the assay with Tipifarnib + Tozasertib (first compound 1 µM) were 0.2 and 0.244, respectively.
Consider HCC-44, for which the relative viability with Tipifarnib + OSI-027 (first compound 0.01 µM) was determined as 0.736; in the assay with Tipifarnib + OSI-027 (first compound 0.03162 µM), 0.423; with Tipifarnib + OSI-027 (first compound 0.1 µM), 0.383; with Tipifarnib + OSI-027 (first compound 0.3162 µM) it was 0.329; in the assay with Tipifarnib + OSI-027 (first compound 1 µM), 0.289; in the assay with Tipifarnib + Crizotinib (first compound 0.01 µM), 0.749. The relative viability with Tipifarnib + Crizotinib (first compound 0.03162 µM) is 0.698; in the assay with Tipifarnib + Crizotinib (first compound 0.1 µM), 0.599; in the assay with Tipifarnib + Crizotinib (first compound 0.3162 µM) it was 0.576; with Tipifarnib + Crizotinib (first compound 1 µM) it was 0.568; with Tipifarnib + Linsitinib (first compound 0.01 µM), 0.563; with Tipifarnib + Linsitinib (first compound 0.03162 µM) it was 0.615. The relative viability with Tipifarnib + Linsitinib (first compound 0.1 µM) is 0.557; with Tipifarnib + Linsitinib (first compound 0.3162 µM) it was 0.493; in the assay with Tipifarnib + Linsitinib (first compound 1 µM) it was 0.521; with Tipifarnib + Tozasertib (first compound 0.01 µM), 0.935; with Tipifarnib + Tozasertib (first compound 0.03162 µM), 0.665; in the assay with Tipifarnib + Tozasertib (first compound 0.1 µM), 0.572. Further, the relative viability with Tipifarnib + Tozasertib (first compound 0.3162 µM) is 0.623; with Tipifarnib + Tozasertib (first compound 1 µM), 0.578.

The record behind these values is the supplement of paper PMC10307832.
